Source: article PMC9569593, “Measurement of Hepatic CYP3A4 and 2D6 Activity Using Radioiodine-Labeled O-Desmethylvenlafaxine” (International Journal of Molecular Sciences, 2022)

Assays:
[1] = test system: CYP3A4; set-up: method as in PMID 26331791; details: non-labeled ODV ref 11; cited from earlier work
[2] = test system: CYP3A4; assay: Inhibition of CYP-mediated metabolism of 125I-ODV by selective inhibitor (ketoconazole); type: in vitro ADME; details: ddY, mouse, pooled mouse liver homogenate (MLH), pH 7.4, probe 125I-ODV; inhibitor 10 µM, compared with NADPH [+]
Description: (§1) The pooled MLH was stored at −80 °C.
(§2) For inhibition analysis of specific isozymes of CYP-mediated metabolism of ^125I-ODV, selective inhibitors of CYP isozymes employed in this study included α-naphthoflavone (an inhibitor of CYP1A1 and 1A2), sulfaphenazole (CYP2C9), fluconazole (CYP2C19), paroxetine (CYP2D6), 4-methylpyrazole (CYP2E1), and ketoconazole (CYP3A4). These selective inhibitors were used to elucidate the CYP responsible for the biotransformation of ^125I-ODV. Each inhibitor was dissolved at 10 µM (dimethyl sulfoxide 0.8% v/v final concentration). […] The sample was incubated at 37 °C for 15 min with gentle shaking. The reaction was stopped by adding 100 µL ethanol, and the sample was centrifuged for 5 min at 18,000 g.

[3] = test system: CYP2D6; assay: Inhibition of CYP-mediated metabolism of 125I-ODV by selective inhibitor (paroxetine); type: in vitro ADME; details: ddY, mouse, pooled mouse liver homogenate (MLH), pH 7.4, probe 125I-ODV; inhibitor 10 µM, compared with NADPH [+]
Description: as §1, §2

Which “CYP isozyme metabolizing ODV” value [1] does the source give for `CN(C)CC(c1ccc(O)cc1)C1(O)CCCCC1` (stereo not drawn) [ODV, O-desmethylvenlafaxine] here?
The value was “metabolized only by CYP3A4”.

With `CC(=O)N1CCN(c2ccc(OCC3COC(Cn4ccnc4)(c4ccc(Cl)cc4Cl)O3)cc2)CC1` (stereo not drawn) [ketoconazole] as the molecule, how does the inhibition at 15 min, 10 µM [2] read?
Its inhibition at 15 min, 10 µM is 63%.

With `Fc1ccc([C@@H]2CCNC[C@H]2COc2ccc3c(c2)OCO3)cc1` [paroxetine] as the molecule, how does the inhibition at 15 min, 10 µM [3] read?
The inhibition at 15 min, 10 µM was 79%.
